Assay results reported in PubChem BioAssay (NCI).
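Tested at 5 concentrations; 48 h exposure; 96-well plates; endpoints linearly interpolated, else capped at highest concentration. Abbreviation: GI50, concentration required for 50% inhibition of growth. At the TGI there is no net growth.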

Assays:
Assay in all cases: NCI anticancer screen, dose series, 48 h
A498 renal = tested on: A498 renal
HL-60(TB) leukemia = tested on: HL-60(TB) leukemia
COLO 205 colon = tested on: COLO 205 colon
PC-3 prostate = tested on: PC-3 prostate
786-0 renal = tested on: 786-0 renal
UACC-62 melanoma = tested on: UACC-62 melanoma
HCT-116 colon = tested on: HCT-116 colon
SR leukemia = tested on: SR leukemia
OVCAR-4 ovarian = tested on: OVCAR-4 ovarian
SNB-75 CNS = tested on: SNB-75 CNS
NCI/ADR-RES ovarian = tested on: NCI/ADR-RES ovarian
SF-539 CNS = tested on: SF-539 CNS
BT-549 breast = tested on: BT-549 breast
DU-145 prostate = tested on: DU-145 prostate
NCI-H23 lung = tested on: NCI-H23 lung

Row | SMILES | TGI (A498 renal) | TGI (HL-60(TB) leukemia) | TGI (COLO 205 colon) | TGI (PC-3 prostate) | TGI (786-0 renal) | TGI (UACC-62 melanoma) | TGI (HCT-116 colon) | TGI (SR leukemia) | TGI (OVCAR-4 ovarian) | TGI (SNB-75 CNS) | TGI (NCI/ADR-RES ovarian) | TGI (SF-539 CNS) | TGI (BT-549 breast) | TGI (DU-145 prostate) | TGI (NCI-H23 lung) | GI50 (SNB-75 CNS) | GI50 (DU-145 prostate)
1 | COc1ccc2c(c1)-c1c(c3ccccc3n1CCN1CCCCC1)CC2 | > 100 µM | 20.4 µM | 29.9 µM | > 87.7 µM | 41.9 µM | 36.5 µM | 29.5 µM | 30.9 µM | > 100 µM | > 100 µM | 34.4 µM | 39.3 µM | > 71 µM | > 100 µM | 38.8 µM |  | 
2 | C/C(=C\c1csc(C)n1)[C@@H]1C[C@@H]2O[C@]2(C)CCC[C@H](C)[C@H](O)[C@@H](C)C(=O)C(C)(C)[C@@H](O)CC(=O)O1 (tested in a mixture with another compound) | > 1 µM | 0.0278 µM | 0.119 µM | > 1 µM | > 1 µM | > 1 µM | > 0.183 µM | > 0.239 µM | > 1 µM |  | 0.13 µM | 0.0348 µM | > 1 µM | 0.0682 µM | > 1 µM | 0.00551 µM | 0.00528 µM
3 | O=c1c2cc([N+](=O)[O-])cnc2sn1-c1ccc(Oc2ccccc2)cc1 |  | > 100 µM | > 100 µM | > 100 µM | > 100 µM | > 100 µM | > 100 µM | > 100 µM | > 100 µM | > 100 µM | > 100 µM | > 100 µM | > 100 µM | > 100 µM | > 100 µM |  | 
4 | [N-]=[N+]=Nc1cc(=O)n(-c2ccccc2)c(=O)n1-c1ccccc1 |  |  | > 100 µM | > 100 µM | > 100 µM | > 100 µM | > 100 µM | > 100 µM | > 100 µM | > 100 µM | > 100 µM | > 100 µM | > 100 µM |  | > 100 µM |  | 
5 | COCC1OCCN1C (stereo unspecified) | > 100 µM |  | > 100 µM | > 100 µM | > 100 µM | > 100 µM | > 100 µM | > 100 µM | > 100 µM | > 100 µM | > 100 µM | > 100 µM | > 100 µM |  | > 100 µM |  | 
6 | C=C1[C@H](OCC(C)C)[C@@H](OCC(C)C)[C@@H](O)C(C)(C)/C=C/[C@H](C)C(=O)[C@@]2(O)C[C@H](C)[C@H](O)[C@@H]2[C@H]1OCC(C)C | > 7.5 µM |  | > 7.5 µM | > 7.5 µM | > 7.5 µM | > 7.5 µM | > 7.5 µM | > 7.5 µM | > 7.5 µM | > 7.5 µM | > 7.5 µM | > 7.5 µM | > 7.5 µM | > 7.5 µM | > 7.5 µM |  | 
7 | COc1c(C(=O)O)cccc1-c1cccc(C(=O)NCCN(CCNC(=O)c2cccc(-c3cccc(C(=O)O)c3OC)c2OC)CCNC(=O)c2cccc(-c3cccc(C(=O)O)c3OC)c2OC)c1OC | 96.2 µM | 65.4 µM | 62.9 µM | > 100 µM | > 100 µM | 89.7 µM | > 100 µM | 44.1 µM | > 100 µM | > 100 µM | > 100 µM | > 100 µM | > 100 µM | > 100 µM | > 100 µM |  | 
8 | c1ccc2c(OCC3CO3)ccc(OCC3CO3)c2c1 (stereo unspecified) | 33.9 µM | 2.4 µM | 23 µM | 17.1 µM | 5.57 µM | 12.2 µM | 2.76 µM | 11.1 µM | 21 µM | 28.4 µM | 31.1 µM | 4.8 µM | 18.8 µM | 5.47 µM | 6.67 µM |  | 
9 | COc1ccc(OC)c2c(=O)cc(-c3ccccc3)[nH]c12 | > 100 µM | > 100 µM | > 100 µM | > 100 µM | > 100 µM | > 100 µM | > 100 µM | > 100 µM | > 100 µM | > 100 µM | > 100 µM |  | > 100 µM | > 100 µM | > 100 µM |  | 
10 | CCOC(=O)C(NC(=O)NCc1ccc(F)cc1)C(F)(F)F (stereo unspecified) | > 100 µM | > 100 µM | > 100 µM | > 100 µM | > 100 µM |  | > 100 µM | > 100 µM |  | > 100 µM | > 100 µM | > 100 µM | > 100 µM |  | > 100 µM |  | 
11 | Cc1nn(-c2ccccc2)c2nc3c(c(C)nn3-c3ccccc3)c(-c3ccccc3Br)c12 | > 100 µM |  | > 100 µM | > 100 µM | > 100 µM | > 100 µM | > 100 µM | > 100 µM | > 100 µM | > 100 µM | > 100 µM | > 100 µM | > 100 µM | > 100 µM | > 100 µM |  | 
12 | CC(C)CC(=O)OC[n+]1cccc(-c2c(COC(=O)NC(C)C)c(COC(=O)NC(C)C)c3n2CCC3)c1 | 59 µM |  | > 100 µM | > 100 µM | 97.7 µM | > 100 µM | > 100 µM | > 100 µM | > 100 µM | > 100 µM | > 100 µM | > 100 µM | > 100 µM | 79.7 µM | > 100 µM |  | 
13 | Cc1ccc(-c2cnc(NC3OC(COC(=O)c4ccccc4)C(OC(=O)c4ccccc4)C(OC(=O)c4ccccc4)C3OC(=O)c3ccccc3)s2)cc1 (stereo unspecified) |  |  | > 100 µM | > 100 µM | > 100 µM | > 100 µM | > 100 µM | > 100 µM | > 100 µM | > 100 µM | > 100 µM |  | > 100 µM | > 100 µM | > 100 µM |  | 
14 | O=S(=O)([N-]c1nc2ccccc2nc1-[n+]1ccccc1)c1ccccc1 |  | 72.6 µM | > 100 µM | > 100 µM | > 100 µM | > 100 µM | > 100 µM | 77.3 µM | > 100 µM | > 100 µM | > 100 µM | > 100 µM | > 100 µM |  | > 100 µM |  | 
15 | CCC1=NC(N/N=C/c2ccccc2O)=N/C1=C\c1ccccc1O | 85.4 µM | 10.6 µM | > 74.8 µM | > 100 µM | > 72.1 µM | 48.4 µM | 39.8 µM | > 100 µM | > 31.3 µM | > 100 µM | 24 µM |  | > 53.7 µM | > 64.7 µM | > 74.7 µM |  | 
16 | Cc1cc2c(cc1Cl)SC(NNC(=O)c1ccncc1)=NS2(=O)=O | > 10 µM | > 10 µM | > 10 µM | > 10 µM | > 10 µM | > 10 µM | > 10 µM |  | > 10 µM | > 10 µM | > 10 µM | > 10 µM | > 10 µM | > 10 µM | > 10 µM |  | 
17 | Cc1nc2c(n1CCCl)C(=O)c1ccccc1C2=O |  | 83.8 µM | 30.2 µM | 46.1 µM | > 100 µM | 44.2 µM | 36.6 µM | > 100 µM | 29.7 µM | > 100 µM | 63.6 µM | > 100 µM | 38.3 µM | > 100 µM | 92.2 µM |  | 
18 | COC(=O)C1=C(C(=O)OC)C(C(=O)c2ccccc2)N2N=C(c3ccc(Cl)cc3)C=CC12 (stereo unspecified) | > 100 µM | > 100 µM | > 100 µM | > 100 µM | > 100 µM | > 100 µM | > 100 µM | > 100 µM | > 100 µM |  | > 100 µM | > 100 µM | 8.55 µM | > 100 µM | > 100 µM |  | 
19 | CC(C)[Si](OCC/C=C/C1CCC(=O)C1C(O)C1CCCCC1)(C(C)C)C(C)C (stereo unspecified) | 33.9 µM |  | 35.5 µM | 31.5 µM | 29.3 µM | 29.7 µM | 28 µM | 14.8 µM | 38.6 µM | 30.1 µM | 27.6 µM | 40.6 µM | 34.1 µM | 32 µM | 29 µM |  | 
20 | Cc1ccc2nc(CN3CCCCC3)cc(=O)n2c1 |  | > 100 µM | > 100 µM | > 100 µM | > 100 µM | > 100 µM | > 100 µM | > 100 µM | > 100 µM | > 100 µM | > 100 µM | > 100 µM | > 100 µM | > 100 µM | > 100 µM |  | 
21 | CC/C(=C/OC)P1(=O)OC(C)(C)CN1C(C)(C)C (stereo unspecified) | > 100 µM |  | > 100 µM | > 100 µM | > 100 µM | > 100 µM | > 100 µM | > 100 µM | > 100 µM |  | > 100 µM | > 100 µM | > 100 µM | > 100 µM | > 100 µM |  | 
22 | COc1ccccc1NC(=S)Nc1cccc(C)n1 | > 100 µM | > 100 µM | > 100 µM | > 100 µM | > 100 µM | > 100 µM | > 100 µM | > 100 µM | > 100 µM | 63.5 µM | > 100 µM | > 100 µM | > 100 µM | > 100 µM |  |  | 
23 | CNC(=O)C(C)NC(=O)C(Cc1ccccc1)NC(=O)OC(C)(C)C (stereo unspecified) | > 100 µM | > 100 µM | > 100 µM | > 100 µM | > 100 µM | > 100 µM | > 100 µM | > 100 µM |  | > 100 µM | > 100 µM | > 100 µM | > 100 µM | > 100 µM | > 100 µM |  | 
24 | O=C(n1[nH]c(=O)n(-c2ccc([N+](=O)[O-])cc2)c1=O)C(Cl)(Cl)Cl |  | > 75 µM | > 75 µM | > 75 µM | > 75 µM | > 75 µM | > 75 µM | > 75 µM | > 75 µM | > 75 µM | > 75 µM |  | > 75 µM | > 75 µM | > 75 µM |  | 
